According to patent US20110217300A1, “Quinazolinone Compounds and Methods of Use Thereof” (priority 2007, published 2011):

Assays:
[1] = system: late-stage solid tumors or hematologic malignancies; experiment: Phase I clinical study, open-label dose escalation, intravenous; assay type: in vivo, patients
Description: An open-label, dose escalation study of intravenous N-(3-amino-propyl)-3-chloro-N—[(R)-1-(7-chloro-4-oxo-3-phenylamino-3,4-dihydro-quinazolin-2-yl)-but-3-ynyl]-2-fluoro-benzamide was performed. The title compound was administered to patients with late-stage solid tumors or hematologic malignancies. […] There were 3-6 patients per cohort.

[2] = molecular target: T1, HsEg5 (Homo sapiens, UniProt P52732); experiment: Fluorescence detection of HsEg5 ATPase activity (ADP Quest, automated); assay type: biochemical
T1 sequence (P52732 18-359 limits assumed): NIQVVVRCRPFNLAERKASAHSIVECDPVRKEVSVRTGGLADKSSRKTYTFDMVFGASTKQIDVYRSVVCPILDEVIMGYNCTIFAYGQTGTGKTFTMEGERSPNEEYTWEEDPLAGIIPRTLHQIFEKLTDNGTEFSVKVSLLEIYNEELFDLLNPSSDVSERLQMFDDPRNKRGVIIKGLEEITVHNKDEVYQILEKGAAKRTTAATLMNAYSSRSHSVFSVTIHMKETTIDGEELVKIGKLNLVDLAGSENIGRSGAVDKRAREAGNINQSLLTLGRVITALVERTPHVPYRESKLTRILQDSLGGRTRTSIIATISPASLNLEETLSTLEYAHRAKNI
Outline: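 Microtubule-activated HsEg5 motor fragment (10 nM, 500 nM MTs) preincubated 10 min with compound, then 20 μM ATP for 10 min at room temperature in Pipes pH 7.0, MgCl2, paclitaxel, 0.3% DMSO. ADP detected via coupled-enzyme resorufin fluorescence; IC50 over 100 μM–5 nM.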

[3] = patients with the tumor types listed in Table 5

SMILES: C#CC[C@H](c1nc2cc(Cl)ccc2c(=O)n1Nc1ccccc1)N(CCCN)C(=O)c1cccc(Cl)c1F [Compound 1, N-(3-Amino-propyl)-3-chloro-N—[(R)-1-(7-chloro-4-oxo-3-phenylamino-3,4-dihydro-quinazolin-2-yl)-but-3-ynyl]-2-fluoro-benzamide]
- Duration on Study ([1]; Cohort 1, 10 mg/m^2 intravenous, Cholangiocarcinoma (bile duct)): 24 weeks
- Duration on Study ([1]; Cohort 2, 20 mg/m^2 intravenous, Colorectal cancer): 17 weeks
- Duration on Study ([1]; Cohort 2, 20 mg/m^2 intravenous, Liposarcoma (soft tissue)): 24 weeks
- Duration on Study ([1]; Cohort 4, 53 mg/m^2 intravenous, Leiomyosarcoma (smooth muscle)): 39 weeks
- Duration on Study ([1]; Cohort 5, 70 mg/m^2 intravenous, Carcinoid): 24 weeks
- Duration on Study ([1]; Cohort 6, 100 mg/m^2 intravenous, Colorectal cancer): 19 weeks
- Duration on Study ([1]; Cohort 9, 280 mg/m^2 intravenous, Endocervical cancer): 36 weeks
- Duration on Study ([1]; Cohort 9, 280 mg/m^2 intravenous, Malignant Thymoma, patient still on study (active)): 24 (active) weeks
- response ([1]; endocervical cancer patient, before withdrawing consent): minor response
- disease course ([1]; leiomyosarcoma patient, stayed on study afterwards): tumor progression at cycle 6
- disease status [1, 3]: stable diseases for an extended period
- time patients stayed on study [1, 3]: greater than 16 weeks
- IC50 [2]: 28 nM
